{"source": "patent US7432369B2", "about": "“Pyridyl-substituted porphyrin compounds and methods of use thereof” (Inotek Pharmaceuticals Corporation, priority 2004, dated 2008)", "key": {"[1]": {"system": "rats subjected to balloon-induced vascular injury", "test": "Balloon-induced vascular injury of the carotid artery", "type": "in vivo, rat", "conditions": "1 mg/kg bid", "excerpt": "Rats were subjected to balloon-induced vascular injury of the carotid artery as previously described in C. Zhang et al., Am J Physiol Heart Circ Physiol., August 2004;287(2):H659-66."}, "[2]": {"system": "rats subjected to heterotopic heart transplantation", "test": "Heterotopic heart transplantation", "type": "in vivo, rat", "conditions": "10 mg/kg/day orally", "method": "Rats were subjected to heterotopic heart transplantation as described previously in H. Jiang et al., Transplantation, Jun. 15, 2002;73(11):1808-17. Compound 3 was administered at a dose of 10 mg/kg/day orally."}, "[3]": {"system": "A549 human epithelial cells", "test": "Oxidant or free-radical damage, cell viability (mitochondrial respiration)", "type": "cell-based", "conditions": "A549 cells treated with oxidants and free radicals", "method": "(§1) The four right-hand most bar graphs represent cytotoxin plus […] of Compound 3.\n(§2) A549 human epithelial cells and RAW murine macrophages were grown and cultured, then treated with oxidants and free radicals in the presence or absence of varying concentrations of Compound 3 according to the method of C. Szabo et al., Mol Med., October 2002;8(10):571-80. […] Protection is by 3-100 μM of Compound 3."}, "RAW murine macrophages": {"system": "RAW murine macrophages", "test": "Oxidant or free-radical damage, cell viability (mitochondrial respiration)", "type": "cell-based", "conditions": "RAW cells treated with oxidants and free radicals", "method": "as §1, §2"}, "[4]": {"system": "mice subjected to streptozocin diabetes", "test": "Multiple low dose streptozocin diabetes", "type": "in vivo", "conditions": "3 or 10 mg/kg/day ip", "excerpt": "Mice were subjected to multiple low dose streptozocin diabetes as previously described in J. G. Mabley et al., Br J Pharmacol., July 2001;133(6):909-19."}, "[5]": {"system": "rats subjected to myocardial infarction", "test": "Myocardial infarction by occlusion and reperfusion of the left anterior descending coronary artery", "type": "in vivo, rat", "conditions": "5 minutes prior to reperfusion", "method": "Rats were subjected to myocardial infarction by occlusion and reperfusion of the left anterior descending coronary artery as previously described in C. Y. Xiao et al., J Pharmacol Exp Ther., August 2004;310(2):498-504. Compound 3 was administered at doses of 1, 3, or 6 mg/kg i.v., 5 minutes prior to reperfusion."}, "[6]": {"system": "rats subjected to hemorrhagic shock", "test": "Hemorrhagic shock and resuscitation", "type": "in vivo, rat", "conditions": "6 mg/kg i.v., 5 minutes prior to resuscitation", "method": "Rats were subjected to 2 hours of hemorrhage, followed by resuscitation as previously described in O. V. Evgenov et al., Crit Care Med., October 2003;31(10):2429-36. Compound 3 was administered at a dose of 6 mg/kg i.v., 5 minutes prior to resuscitation. […] To obtain the results shown in FIG. 7, rats were bled to reach mean BP of 40 mm Hg. This mean BP was maintained for 2 hours, followed by resuscitation with saline at a volume of 2× the shed blood volume. Rats were then observed for 3 hours, and the survival time was recorded. Compound 3 (6 mg/kg) was administered intravenously before the start of resuscitation. To obtain the results shown in FIG. 8, left intraventricular systolic pressure (LVSP), dP/dt, -dP/dt were monitored continuously for 20 minutes from 40 minutes after resuscitation. Compound 3 (6 mg/kg) was administered intravenously before the start of resuscitation. To obtain the results shown in FIG. 9, blood was taken 1 hour after resuscitation. Compound 3 (6 mg/kg) was administered intravenously before the start of resuscitation. To obtain the results shown in FIG. 10, blood was taken at 1 hour after resuscitation. Compound 3 (6 mg/kg) was administered intravenously before the start of resuscitation."}, "[7]": {"system": "mice subjected to heart failure", "test": "Heart failure induced by aortic banding", "type": "in vivo", "conditions": "3 mg/kg/day orally", "method": "Mice were subjected to heart failure induced by aortic banding as previously described in C. Y. Xiao et al., J Pharmacol Exp Ther., March 2005;312(3):891-8. Compound 3 was administered at a dose of 3 mg/kg/day orally."}}}
{"smiles": "O=C([O-])c1ccc(C[n+]2ccccc2/C2=C3\\C=CC(=N3)/C(c3cccc[n+]3Cc3ccc(C(=O)[O-])cc3)=c3/cc/c4[n]3[Fe]([Cl])[n]3c2ccc3/C(c2cccc[n+]2Cc2ccc(C(=O)[O-])cc2)=C2/C=CC(=N2)\\C=4c2cccc[n+]2Cc2ccc(C(=O)[O-])cc2)cc1", "note": "[Compound 3]", "values": [{"measurement": "degree of intimal hypertrophy", "setting": "[1]", "value": "reduced the degree of intimal hypertrophy"}, {"measurement": "development of endothelial dysfunction", "setting": "[1]", "value": "prevented the development of endothelial dysfunction"}, {"measurement": "loss of endothelium-dependent relaxations on the injured side", "setting": "[1]; FIG. 13", "value": "completely prevented this loss of the endothelial function"}, {"measurement": "degree of myocardial hypertrophy", "setting": "[2]", "value": "reduced the degree of myocardial hypertrophy"}, {"measurement": "concentration giving protection", "setting": "[3]", "value": "3 to 100", "unit": "µM"}, {"measurement": "protection against the suppression of cell viability", "setting": "[3]", "value": "dose-dependently protected"}, {"measurement": "concentration giving protection", "setting": "RAW murine macrophages", "value": "3 to 100", "unit": "µM"}, {"measurement": "protection against the suppression of cell viability", "setting": "RAW murine macrophages", "value": "dose-dependently protected"}, {"measurement": "development of hyperglycemia", "setting": "[4]", "value": "prevented the development of hyperglycemia"}, {"measurement": "pancreatic insulin content", "setting": "[4]", "value": "normalized pancreatic insulin content"}, {"measurement": "plasma levels of creatine kinase", "setting": "[5]; 6 mg/kg i.v.", "value": "reduced plasma levels of creatine kinase"}, {"measurement": "protective effect", "setting": "[5]; 6 mg/kg i.v.", "value": "significant protective effect"}, {"measurement": "infarct size", "setting": "[5]; 1, 3, or 6 mg/kg i.v.", "value": "effective for reducing infarct size"}, {"measurement": "blood pressure", "setting": "[6]", "value": "effective for stabilizing blood pressure"}, {"measurement": "plasma levels of ALT", "setting": "[6]", "value": "reduced"}, {"measurement": "plasma levels of creatine kinase", "setting": "[6]", "value": "reduced plasma levels of creatine kinase"}, {"measurement": "survival rate", "setting": "[6]", "value": "increasing survival rate"}, {"measurement": "degree of myocardial hypertrophy", "setting": "[7]", "value": "reduced the degree of myocardial hypertrophy"}]}
